Like-named read-outs stand apart in the source and are kept apart here.
Assays:
mycobacteria marinum = assay: Example 7 finger infection of a patient; type: in vivo, human; settings: eleven days of antibiotics before the composition
Experimental: Action against Mycobacteria: A person with four-month long history of an infection on the posterior aspect of their right ring finger was treated. […] After failing two full courses of oral antibiotics, over the previous four months, the patient was given a third round of antibiotics, this time Clarythromycin, after their finger's condition had worsened.

MRSA = settings: human, in vivo; cited from earlier work
Enterococcus = assay: Example 6 infected decubitus ulcer of a patient; type: in vivo, human; settings: five days of antibiotic before the composition
Source text: Both swabs were sent to the lab and a count of colony-forming units (CFUs) was ordered.

[1] = system: ATCC 29213 (MSSA) and ATCC 43330 (MRSA)
Experimental: Testing was conducted at a pathology laboratory certified for microbiology testing by a physician and a microbiologist. A double blind, randomized controlled experiment was conducted to evaluate the SBDS surfactant against bacteria in Petri dishes.
(§1) Bacterial strain: Two well characterized strains of methicillin-sensitive Staphylococcus aureus (MSSA) and methicillin-resistant Staphylococcus aureus (MRSA) were used. Specifically, experiments used ATCC 29213 (MSSA) and ATCC 43330 (MRSA), both beta-lactamase positive strains, which represent greater than 90% of the respective strains in the American population.
(§2) Petri dish preparation: A sterile cotton swab (American Scientific Products, McGraw Park, Ill.) was dipped into the cultures and used to swab the entire surface of 150×15 mm Petri dishes containing 75 ml of standard Mueller-Hinton agar. Two Petri dishes were inoculated with ATCC 29213 (MSSA and two Petri dishes with ATCC 43330 (MRSA). One Petri dish of each group (MSSA and MRSA) was set aside as the controls. The other two Petri dishes (MSSA and MRSA) were divided up in quadrants, and each quadrant was labeled B, C, D or E.
To evaluate a wider range of surfactant concentrations, cleanser compositions were prepared as follows: A surfactant solution and a stock solution were mixed in various ratios to produce four skin cleanser solutions having four different surfactant concentrations of […], weight-to-weight. The amount of other ingredients in each of the four skin cleanser solutions was less than 1% concentration weight-to-weight.
Cleanser Testing: Four samples of the cleanser with the four different concentrations of the surfactant […] were placed into four separate, unmarked bottles. Each bottle was randomly labeled (B, C, D, or E), and the microbiologist conducting the study was unaware of any difference between the solutions.
(§3) Application: Holding each bottle vertically, the microbiologist added a single drop from each bottle (B, C, D, or E) to the corresponding quadrant of the labeled Petri dish. All four Petri dishes were placed in an incubator overnight at 37 degrees Celsius, and examined 20 hours later. Petri dishes were compared to the corresponding controls, and zones of inhibition were characterized by the largest point of diameter of the circle or oval.

MRSA strains = settings: averaged over three repeated experiments
Source text: as §1, §2, §3

## CC[C@H]1OC(=O)[C@H](C)[C@@H](O[C@H]2C[C@@](C)(OC)[C@@H](O)[C@H](C)O2)[C@H](C)[C@@H](O[C@@H]2O[C@H](C)C[C@H](N(C)C)[C@H]2O)[C@](C)(OC)C[C@@H](C)C(=O)[C@H](C)[C@@H](O)[C@]1(C)O [Clarythromycin]
Mycobacteria marinum
  change in symptoms on antibiotic: no change in symptoms

## CN[C@H](CC(C)C)C(=O)N[C@H]1C(=O)N[C@@H](CC(N)=O)C(=O)N[C@H]2C(=O)N[C@H]3C(=O)N[C@H](C(=O)N[C@H](C(=O)O)c4cc(O)cc(O)c4-c4cc3ccc4O)[C@H](O)c3ccc(c(Cl)c3)Oc3cc2cc(c3O[C@@H]2O[C@H](CO)[C@@H](O)[C@H](O)[C@H]2O[C@H]2C[C@](C)(N)[C@H](O)[C@H](C)O2)Oc2ccc(cc2Cl)[C@H]1O [Vancomycin]
MRSA
  share of MRSA patients for whom usually effective: about 40%

## O=C(O)c1cn(C2CC2)c2cc(N3CCNCC3)c(F)cc2c1=O [ciprofloxacin]
Enterococcus
  course of ulcer on antibiotic: showed signs of worsening

## Sodium Dodecylbenzene Sulfonate [surfactant]
[1]; surfactant concentration 0.5%, single drop, 20 hours, 37 degrees Celsius
  difference from controls: no difference between the controls
[1]; surfactant concentration 1%
  inhibition of colony forming units (CFUs): approximately 50%
[1]; surfactant concentration 2%
  inhibition of colony forming units (CFUs): approximately 50%
[1]; surfactant concentration 8%
  diameter of circle of clear inhibition: approximately 40 mm
MRSA strains; Surfactant conc. 1.00% (vol. %)
  Diameter of Zone of Inhibition (mm): No Change
MRSA strains; Surfactant conc. 2.30% (vol. %)
  Diameter of Zone of Inhibition (mm): 35.3 mm
MRSA strains; Surfactant conc. 2.50% (vol. %)
  Diameter of Zone of Inhibition (mm): 33.7 mm
MRSA strains; Surfactant conc. 2.80% (vol. %)
  Diameter of Zone of Inhibition (mm): 32.7 mm
MRSA strains; Surfactant conc. 3.30% (vol. %)
  Diameter of Zone of Inhibition (mm): 37.3 mm
MRSA strains; Surfactant conc. 4.00% (vol. %)
  Diameter of Zone of Inhibition (mm): 39.3 mm
MRSA strains; Surfactant conc. 4.90% (vol. %)
  Diameter of Zone of Inhibition (mm): 41.7 mm
MRSA strains; Surfactant conc. 6.50% (vol. %)
  Diameter of Zone of Inhibition (mm): 39 mm
MRSA strains; Surfactant conc. 9.30% (vol. %)
  Diameter of Zone of Inhibition (mm): 34 mm
MRSA strains; Surfactant conc. 14.80% (vol. %)
  Diameter of Zone of Inhibition (mm): 42.3 mm

— patent US10894032B2, “Microbial-relief composition” (Curazene, LLC, priority 2014, dated 2021)
